Reference: patent US9096536B2, “Asymmetrically substituted anthrapyridazone derivatives as cytostatics” (BS-154 S.P. ZO.O., priority 2011, dated 2015)
≈ marks a conversion by molar mass, not a printed value. Like-named read-outs stand apart in the source and are kept apart here. Values belong to the compound of their own block, whether it stands above or below them.

How the values were obtained:
[1] = test system: human promyelocytic leukemia cell line HL-60; assay: Cytostatic activity in vitro, HL-60 sensitive line; type: cell-based; conditions: read-out: HL60 IC50
From the text: (§1) Tables 3 and 4 show cytostatic activity in vitro of 2,6-disubstituted and 2- or 6-monosubstituted (Tab.3), and of 2,5-disubstituted-(Tab.-4) tetracyclic anthrapyridazone derivatives using leukemia cell line HL-60 and the resistant cell sublines with resistance induced by vincristine (MDR-1) or doxorubicin (MRP). Activity of compounds is differentiated depending on their structure, but in all cases resistance indexes are more advantageous in comparison with reference compounds: doxorubicin and mitoxantrone.

HL60/VINC [2] = assay: Cytostatic activity in vitro, vincristine-induced resistant subline (MDR-1); type: cell-based, human; conditions: for RI resistance index HL60/VINC: HL60/VINC vs HL60, 72 h
From the text: as §1

HL60/DX [3] = assay: Cytostatic activity in vitro, doxorubicin-induced resistant subline (MRP); type: cell-based, human; conditions: for RI resistance index HL60/DX: IC50(resistant cells)/IC50(sensitive cells)
From the text: as §1

[4] = test system: human prostate cancer cell line DU145; assay: Cytostatic activity in vitro, prostate cancer DU145; type: cell-based; conditions: 72 h continuous exposure
From the text: (§2) Table 5 presents activity in vitro of anthrapiridazone derivatives towards three cell lines of prostate cancer, naturally multidrug resistant, in comparison with references doxorubicin, mitoxantrone and taxol.

[5] = test system: human prostate cancer cell line LNCaP; assay: Cytostatic activity in vitro, prostate cancer LNCaP; type: cell-based; conditions: 72 h continuous exposure
From the text: as §2

[6] = test system: human prostate cancer cell line PC3; assay: Cytostatic activity in vitro, prostate cancer PC3; type: cell-based; conditions: 72 h continuous exposure
From the text: as §2

[7] = test system: human breast cancer cell line MCF7; assay: Cytostatic activity in vitro, breast cancer MCF7; type: cell-based; conditions: 72 h continuous exposure
From the text: (§3) It should be mentioned that resistance index is above one order of magnitude better in comparison with doxorubicin and mitoxantrone.

MCF7/DX = assay: Cytostatic activity in vitro, resistant breast cancer subline MCF7/DX (MDR-1); type: cell-based, human; conditions: for IC50: 72 h continuous exposure; for RI resistance index MCF7/DX: IC50(resistant cells)/IC50(sensitive cells), MCF7/DX vs MCF7
From the text: as §3

[8] = test system: human colon adenocarcinoma HT29; assay: Cytostatic activity in vitro, colon adenocarcinoma HT29; type: cell-based; conditions: 72 h continuous exposure
From the text: (§4) Table 7 presents activity in vitro of selected anthrapyridazone derivatives according to the invention towards sensitive and resistant (MDR-1 type) cell line of human colon adenocarcinoma with resistance induced by mitoxantrone.

HT29/MIT = assay: Cytostatic activity in vitro, mitoxantrone-induced resistant subline HT29/MIT; type: cell-based, human; conditions: for IC50: 72 h continuous exposure; for RI resistance index HT29/MIT: IC50(resistant cells)/IC50(sensitive cells), HT29/MIT vs HT29
From the text: as §4

uterus cancer MES-SA = assay: Cytostatic activity, panel: uterus cancer MES-SA; type: cell-based; conditions: Homo sapiens, MES-SA; 72 h continuous exposure
From the text: (§5) Tables 8A and 8B present cytostatic activity in vitro of selected anthrapyridazone derivatives according to the invention against panel of sensitive and resistant cell lines, in comparison with doxorubicin, cisplatine and mitoxantrone.

MES-SA/DX5 = assay: Cytostatic activity, panel: MES-SA/DX5 resistant to doxorubicin; type: cell-based
From the text: as §5

colon cancer LoVo = assay: Cytostatic activity, panel: colon cancer LoVo; type: cell-based; conditions: Homo sapiens, LoVo; 72 h continuous exposure
From the text: as §5

LoVo/DX = assay: Cytostatic activity, panel: LoVo/DX resistant to doxorubicin; type: cell-based
From the text: as §5

CT-DNA = assay: Interaction with isolated CT-DNA, fluorescence competition with ethidium bromide; type: binding; conditions: for IC50: 50% decrease in fluorescence intensity of DNA-bromide ethydine complex; for Kapp relative constant of DNA-compound bonding: Kapp = (1.26/C50) × KEtBr, KEtBr = 10^7M
From the text: It could be supposed that this property explains cytostatic activity of compounds. In Table 9 there are presented quantitative data on the affinity to DNA of tested compounds using the fluorescence method and competitive affinity to DNA of bromine ethydine and tested compounds.

HL60/VINC [9] = assay: Substrate properties: activity against HL60/VINC in the presence of cyclosporine A (MDR-1 pump inhibitor); type: cell-based, human; conditions: FIG. 2
From the text: FIG. 2 shoes experimentally determined substrate properties of selected antgraoyridazone derivatives vs. Doxorubicin and Mitroxantrone. Activity in vitro against human promyelacytic leykemia cell line HL60/VINC in the presence of cyclosporine A (MDR-1 pump inhibitor).

HL60/DX [10] = assay: Substrate properties: activity against HL60/DX in the presence of BSO (MRP pump inhibitor); type: cell-based, human; conditions: FIG. 3
From the text: Activity in vitro against human promyelolytic leukemia HL60/DX in the presence of D-L-buthionine-(S,R)-sulphoximine (BSO), MRP pump inhibitor.

[11] = Homo sapiens, HL-60, 96 h continuous exposure
[12] = IC50(resistant cells)/IC50(sensitive cells)
[13] = 50% inhibition of cell growth after 72 h continuous exposure

IC50 ([1]; Homo sapiens, HL-60, 50% inhibition of cell growth after 72 h continuous exposure): 16 ± 1 nM | IC50 [1, 11]: 9.5 ± 2 nM | IC50 (HL60/VINC [2]; Homo sapiens, HL60/vinc, 72 h continuous exposure): 882 ± 68 nM | IC50 (HL60/VINC [2]; Homo sapiens, HL60/vinc, 96 h continuous exposure, read-out: HL60VINC IC50): 734 ± 72 nM | IC50 (HL60/DX [3]; Homo sapiens, HL-60, 72 h continuous exposure): 9480 ± 1300 nM | IC50 (HL60/DX [3]; [11]): 1860 ± 143 nM | IC50 ([4]; Homo sapiens, DU-145): 38 ± 7.6 nM | IC50 ([5]; Homo sapiens, LNCaP): 22.4 ± 1.9 nM | IC50 ([6]; Homo sapiens): 106 ± 7 nM | IC50 ([7]; Homo sapiens, MCF7): 19 ± 3.3 nM | IC50 (MCF7/DX; Homo sapiens, MCF7/DX): 932 ± 145 nM | IC50 ([8]; Homo sapiens, HT-29): 64.5 ± 19.2 nM | IC50 (uterus cancer MES-SA): 0.0705 µg/mL (≈ 0.13 µM) | IC50 (MES-SA/DX5; Homo sapiens, MES-SA/Dx5, 72 h continuous exposure): 13.6 µg/mL (≈ 25 µM) | IC50 (colon cancer LoVo): 0.224 µg/mL (≈ 0.413 µM) | IC50 (LoVo/DX; LoVo/DX, 72 h continuous exposure): 12.1 µg/mL (≈ 22.2 µM) | IC50 (CT-DNA): 80 nM
SMILES: COc1cccc2c1C(=O)c1c(O)c3c(c(O)c1C2=O)C[C@@](O)(C(=O)CO)C[C@@H]3O[C@H]1C[C@H](N)[C@H](O)[C@H](C)O1 [Doxorubicin, reference compound]
RI resistance index HL60VINC (HL60/VINC [2]; IC50(resistant cells)/IC50(sensitive cells), 96 h): 77.3 | RI resistance index HL60/VINC (HL60/VINC [2]; [12]): 55.1 | RI resistance index HL60/DX (HL60/DX [3]; 96 h): 195.7 | RI resistance index HL60/DX (HL60/DX [3]; HL60/DX vs HL60, 72 h): 592.8 | RI resistance index MCF7/DX (MCF7/DX): 49.1 | IC50 (HT29/MIT; Homo sapiens, HT-29): 97.1 ± 20.9 nM | RI resistance index HT29/MIT (HT29/MIT): 1.5 | RI MES-SA MES-SA/DX5 (MES-SA/DX5; [12]): 181.2 | RI LoVo LoVo/DX (LoVo/DX; [12]): 54.7 | Kapp relative constant of DNA-compound bonding (CT-DNA): 1.5e+08 M⁻¹ | Effect of blocking MDR-1 pump with cyclosporine A (CSA) on cytostatic activity (HL60/VINC [9]): has positive influence on maintaining the cytostatic activity | Effect of MRP protein inhibitor (BSO) on cytostatic activity (HL60/DX [10]): essentially influences the cytostatic activity

IC50 [1, 13]: 115 ± 3 nM | IC50 (HL60/VINC [2]; 72 h continuous exposure): 597 ± 16 nM | IC50 (HL60/DX [3]; 72 h continuous exposure): 3500 ± 752 nM | IC50 [4]: 418 ± 58 nM | IC50 [5]: 465 ± 121 nM | IC50 [6]: 974 ± 159 nM | IC50 (CT-DNA): 1960 ± 120 nM
SMILES: CCN(CC)CCNc1ccc2c(=O)[nH]nc3c2c1C(=O)c1ccccc1-3 [PDZ-18, 6-(2-Diethylaminoethyloamino)-2,7-dihydro-3H-dibenzo[de,h]cynnoline-3,7-dione]
RI resistance index HL60/VINC (HL60/VINC [2]; [12]): 5.2 | RI resistance index HL60/DX (HL60/DX [3]; HL60/DX vs HL60, 72 h): 30.4 | Kapp relative constant of DNA-compound bonding (CT-DNA): 6.4e+06 M⁻¹

IC50 [1, 13]: 382 ± 56 nM | IC50 (HL60/VINC [2]; 72 h continuous exposure): 677 ± 29 nM | IC50 (HL60/DX [3]; 72 h continuous exposure): 1360 ± 135 nM | IC50 [4]: 538 ± 45 nM | IC50 [5]: 474 ± 76 nM | IC50 [6]: 886 ± 170 nM | IC50 (CT-DNA): 1690 ± 100 nM
SMILES: Nc1ccc2c(=O)n(CCN3CCCCC3)nc3c2c1C(=O)c1ccccc1-3 [PDZ-5, 2-[2-(Piperidinamino)ethyl]-6-amino-2,7-dihydro-3H-dibenzo[de,h]-cynnoline-3,7-dione]
RI resistance index HL60/VINC (HL60/VINC [2]; [12]): 1.8 | RI resistance index HL60/DX (HL60/DX [3]; HL60/DX vs HL60, 72 h): 3.6 | Kapp relative constant of DNA-compound bonding (CT-DNA): 7.5e+06 M⁻¹

Continued, compound first:

SMILES: CN(C)CCn1nc2c3c(c(NCCN)ccc3c1=O)C(=O)c1ccccc1-2 [BS-121, 2-[2-(Dimethylamino)ethyl]-6-[2-(aminoethyl)amino)-2,7-dihydro-3H-dibenzo[de,h]cynnoline-3,7-dione]
IC50 [1, 13]: 1.3 ± 0.1 nM | IC50 (HL60/VINC [2]; 72 h continuous exposure): 14.2 ± 1.7 nM | RI resistance index HL60/VINC (HL60/VINC [2]; [12]): 10.9 | IC50 (HL60/DX [3]; 72 h continuous exposure): 564 ± 72 nM | RI resistance index HL60/DX (HL60/DX [3]; HL60/DX vs HL60, 72 h): 433.8 | IC50 [4]: 11.3 ± 2.6 nM | IC50 [5]: 5.5 ± 0.7 nM | IC50 [6]: 37.6 ± 8.1 nM | IC50 [7]: 39.6 ± 0.8 nM | IC50 (MCF7/DX): 45.3 ± 8.1 nM | RI resistance index MCF7/DX (MCF7/DX): 1.1 | IC50 [8]: 9.7 ± 1 nM | IC50 (HT29/MIT): 39.4 ± 4.3 nM | RI resistance index HT29/MIT (HT29/MIT): 4.1 | IC50 (CT-DNA): 260 ± 20 nM | Kapp relative constant of DNA-compound bonding (CT-DNA): 4.83e+07 M⁻¹ | Effect of blocking MDR-1 pump with cyclosporine A (CSA) on cytostatic activity (HL60/VINC [9]): does not essentially affect the cytostatic activity | Effect of MRP protein inhibitor (BSO) on cytostatic activity (HL60/DX [10]): only partially

SMILES: CC(CNc1ccc2c(=O)n(CC(C)N(C)C)nc3c2c1C(=O)c1ccccc1-3)N(C)C (centres unmarked) [Compound C-123, 2-[2-(Dimethylamino)propyl]-6-{[2-(dimethylamino)propyl]amino}-2,7-dihydro-3H-dibenzo[de,h]cynnoline-3,7-dione]
IC50 [1, 13]: 8.7 ± 0.5 nM | IC50 (HL60/VINC [2]; 72 h continuous exposure): 58 ± 6 nM | RI resistance index HL60/VINC (HL60/VINC [2]; [12]): 6.7 | IC50 (HL60/DX [3]; 72 h continuous exposure): 827 ± 145 nM | RI resistance index HL60/DX (HL60/DX [3]; HL60/DX vs HL60, 72 h): 95.1 | IC50 [4]: 25.6 ± 2.6 nM | IC50 [5]: 52.9 ± 12.1 nM | IC50 [6]: 127 ± 38.6 nM | IC50 (CT-DNA): 310 ± 40 nM | Kapp relative constant of DNA-compound bonding (CT-DNA): 4.04e+07 M⁻¹
